Results published in patent publication US8012956B2, “Tropane compounds” (Exelixis, Inc., priority 2007, dated 2011).

target: HSP90 (Homo sapiens, UniProt P07900); test: HSP90 inhibition (HSP90 IC50); assay type: biochemical

For `COc1cccc(C(=O)N[C@H]2C[C@H]3CC[C@@H](C2)N3c2ccc(C(=O)NCc3ccccc3)cn2)c1CCCNC(C)C` [6-[3-endo-({[2-{3-[(1-methylethyl)amino]propyl}-3-(methyloxy)phenyl]carbonyl}amino)-8-azabicyclo[3.2.1]oct-8-yl]-N-(phenylmethyl)pyridine-3-carboxamide], which IC50 is on record?
The IC50 was 1000 to 2000 nM.

With `Cc1c(C(=O)NC2CC3CCC(C2)N3c2ccc(C(=O)N[C@@H](C)c3ccc(N4CCN(C)CC4)cc3)cn2)cccc1N(C)C` (stereo partly drawn) [6-[3-endo-({[3-(dimethylamino)-2-methylphenyl]carbonyl}amino)-8-azabicyclo[3.2.1]oct-8-yl]-N-{(1S)-1-[4-(4-methylpiperazin-1-yl)phenyl]ethyl}pyridine-3-carboxamide] as the molecule, how does the IC50 read?
The IC50 was 2000 to 10000 nM.

For `C=CCc1c(OC)cccc1C(=O)N[C@H]1C[C@H]2CC[C@@H](C1)N2c1ccc(C(=O)NCc2ccccc2)cn1` [6-[3-endo-({[3-(methyloxy)-2-prop-2-en-1-ylphenyl]carbonyl}amino)-8-azabicyclo[3.2.1]oct-8-yl]-N-(phenylmethyl)pyridine-3-carboxamide], which IC50 is on record?
Its IC50 is 500 to 999 nM.

With `CCCc1c(OC)cccc1C(=O)N[C@H]1C[C@H]2CC[C@@H](C1)N2c1ccc(C(=O)NCc2ccccc2)cn1` [6-[3-endo-({[3-(methyloxy)-2-propylphenyl]carbonyl}amino)-8-azabicyclo[3.2.1]oct-8-yl]-N-(phenylmethyl)pyridine-3-carboxamide] as the molecule, how does the IC50 read?
Its IC50 is 2000 to 10000 nM.

With `Cc1cc(CO)ccc1C(=O)N[C@H]1C[C@H]2CC[C@@H](C1)N2c1ccc(C(=O)NCc2ccccc2)cn1` [6-[3-endo-({[4-(hydroxymethyl)-2-methylphenyl]carbonyl}amino)-8-azabicyclo[3.2.1]oct-8-yl]-N-(phenylmethyl)pyridine-3-carboxamide] as the molecule, how does the IC50 read?
The IC50 was less than 500 nM.

Which IC50 does the source give for `Cc1cc(CO)ccc1C(=O)N[C@H]1C[C@H]2CC[C@@H](C1)N2c1ccc(C(=O)NCc2cccnc2)cn1` [6-[3-endo-({[4-(hydroxymethyl)-2-methylphenyl]carbonyl}amino)-8-azabicyclo[3.2.1]oct-8-yl]-N-(pyridin-3-ylmethyl)pyridine-3-carboxamide] here?
Its IC50 is less than 500 nM.

How did the IC50 turn out when `COc1cc(C(=O)N[C@H]2C[C@H]3CC[C@@H](C2)N3c2ccc(C(N)=O)cn2)ccc1CO` [6-[3-endo-({[4-(hydroxymethyl)-3-(methyloxy)phenyl]carbonyl}amino)-8-azabicyclo[3.2.1]oct-8-yl]pyridine-3-carboxamide] was run?
Its IC50 is 500 to 999 nM.

`O=C(NCc1ccccc1)c1ccc(N2[C@@H]3CC[C@H]2C[C@@H](NC(=O)c2ccc(CO)cc2)C3)nc1` [6-[3-endo-({[4-(hydroxymethyl)phenyl]carbonyl}amino)-8-azabicyclo[3.2.1]oct-8-yl]-N-(phenylmethyl)pyridine-3-carboxamide] was tested. Which IC50 did it give?
The IC50 was less than 500 nM.

Which IC50 does the source give for `O=C(NCc1cccnc1)c1ccc(N2[C@@H]3CC[C@H]2C[C@@H](NC(=O)c2ccc(CO)cc2)C3)nc1` [6-[3-endo-({[4-(hydroxymethyl)phenyl]carbonyl}amino)-8-azabicyclo[3.2.1]oct-8-yl]-N-(pyridin-3-ylmethyl)pyridine-3-carboxamide] here?
Its IC50 is less than 500 nM.

Which IC50 does the source give for `Cc1cnc(CNC(=O)c2ccc(N3[C@@H]4CC[C@H]3C[C@@H](NC(=O)c3ccc(CO)cc3)C4)nc2)cn1` [6-[3-endo-({[4-(hydroxymethyl)phenyl]carbonyl}amino)-8-azabicyclo[3.2.1]oct-8-yl]-N-[(5-methylpyrazin-2-yl)methyl]pyridine-3-carboxamide] here?
The IC50 was less than 500 nM.

How did the IC50 turn out when `NC(=O)c1ccc(N2[C@@H]3CC[C@H]2C[C@@H](NC(=O)c2ccc(CO)cc2)C3)nc1` [6-[3-endo-({[4-(hydroxymethyl)phenyl]carbonyl}amino)-8-azabicyclo[3.2.1]oct-8-yl]pyridine-3-carboxamide] was run?
Its IC50 is less than 500 nM.

For `C[C@H](NC(=O)c1ccc(N2C3CCC2CC(NC(=O)c2cccc(N[C@H]4CC[C@H](O)CC4)c2)C3)nc1)c1ccc(N2CCN(C)CC2)cc1` (stereo partly drawn) [6-{3-endo-[({3-[(4-hydroxycyclohexyl)amino]phenyl}carbonyl)amino]-8-azabicyclo[3.2.1]oct-8-yl}-N-{(1S)-1-[4-(4-methylpiperazin-1-yl)phenyl]ethyl}pyridine-3-carboxamide], which IC50 is on record?
Its IC50 is 2000 to 10000 nM.

With `N=C(N)c1ccc(C(=O)N[C@H]2C[C@H]3CC[C@@H](C2)N3c2ccc(C(=O)NCc3ccccc3)cn2)cc1` [6-{3-endo-[({4-[amino(imino)methyl]phenyl}carbonyl)amino]-8-azabicyclo[3.2.1]oct-8-yl}-N-(phenylmethyl)pyridine-3-carboxamide] as the molecule, how does the IC50 read?
The IC50 was 2000 to 10000 nM.

How did the IC50 turn out when `COc1ccc([C@H](NC(=O)c2ccc(N3C4CCC3CC(NC(=O)c3cccc(OC)c3C)C4)nc2)C(=O)O)cc1` (stereo partly drawn) [(2S)-[({6-[3-endo-({[2-methyl-3-(methyloxy)phenyl]carbonyl}amino)-8-azabicyclo[3.2.1]oct-8-yl]pyridin-3-yl}carbonyl)amino][4-(methyloxy)phenyl]ethanoic acid] was run?
Its IC50 is 1000 to 2000 nM.

Which IC50 does the source give for `CCC(COC)Nc1cc(C(=O)N[C@H]2C[C@H]3CC[C@@H](C2)N3c2ccc(C(C)=O)cn2)ccc1C(N)=O` (stereo partly drawn) [N4-(8-(5-acetylpyridin-2-yl)-8-azabicyclo[3.2.1]oct-3-endo-yl]-2-({1-[(methyloxy)methyl]propyl}amino) benzene-1,4-dicarboxamide] here?
Its IC50 is less than 500 nM.

With `CC(=O)c1ccc(N2[C@@H]3CC[C@H]2C[C@@H](NC(=O)c2ccc(C(N)=O)c(NCC4CCCNC4)c2)C3)nc1` (stereo partly drawn) [N4-(8-(5-acetylpyridin-2-yl)-8-azabicyclo[3.2.1]oct-3-endo-yl]-2-[(piperidin-3-ylmethyl)amino]benzene-1,4-dicarboxamide] as the molecule, how does the IC50 read?
Its IC50 is less than 500 nM.

With `CC(C)[C@@H](C)Nc1cc(C(=O)NC2CC3CCC(C2)N3c2ccc(C(=O)C3CC3)cn2)ccc1C(N)=O` (stereo partly drawn) [N4-(8-[5-(cyclopropylcarbonyl)pyridin-2-yl]-8-azabicyclo[3.2.1]oct-3-endo-yl)-2-{[(1R)-1,2-dimethylpropyl]amino}benzene-1,4-dicarboxamide] as the molecule, how does the IC50 read?
Its IC50 is less than 500 nM.

`NC(=O)c1ccc(C(=O)NC2CC3CCC(C2)N3c2ccc(C(=O)NC3CCCC3)cn2)cc1N[C@H]1CC[C@H](O)CC1` (stereo partly drawn) [N4-(8-{5-((cyclopentylamino)carbonyl]pyridin-2-yl}-8-azabicyclo[3.2.1]oct-3-endo-yl)-2-[(4-trans-hydroxycyclohexyl)amino]benzene-1,4-dicarboxamide] was tested. Which IC50 did it give?
The IC50 was less than 500 nM.

Which IC50 does the source give for `NC(=O)c1ccc(C(=O)NC2CC3CCC(C2)N3c2ccc(C(=O)NC3CCCC3)cn2)cc1NCC1CC1` (stereo not drawn) [N4-(8-{5-[(cyclopentylamino)carbonyl]pyridin-2-yl}-8-azabicyclo[3.2.1]oct-3-endo-yl)-2-[(cyclopropylmethyl)amino]benzene-1,4-dicarboxamide] here?
Its IC50 is less than 500 nM.

`CS(=O)(=O)CCNc1cc(C(=O)N[C@H]2C[C@H]3CC[C@@H](C2)N3c2ccc(C(=O)NC3CCCC3)cn2)ccc1C(N)=O` [N4-(8-{5-[(cyclopentylamino)carbonyl]pyridin-2-yl}-8-azabicyclo[3.2.1]oct-3-endo-yl)-2-{[2-(methylsulfonyl)ethyl]amino}benzene-1,4-dicarboxamide] was tested. Which IC50 did it give?
The IC50 was less than 500 nM.

With `C[C@H](NC(=O)c1ccc(N2C3CCC2CC(NC(=O)c2ccc(C(N)=O)c(NCCN4CCOCC4)c2)C3)nc1)c1ccc(N2CCN(C)CC2)cc1` (stereo partly drawn) [N4-(8-{5-[({(1S)-1-[4-(4-methylpiperazin-1-yl)phenyl]ethyl}amino)carbonyl]pyridin-2-yl}-8-azabicyclo[3.2.1]oct-3-endo-yl)-2-[(2-morpholin-4-ylethyl)amino]benzene-1,4-dicarboxamide] as the molecule, how does the IC50 read?
Its IC50 is less than 500 nM.

`C[C@H](NC(=O)c1ccc(N2C3CCC2CC(NC(=O)c2ccc(C(N)=O)c(NCCS(C)(=O)=O)c2)C3)nc1)c1ccc(N2CCN(C)CC2)cc1` (stereo partly drawn) [N4-(8-{5-[({(1S)-1-[4-(4-methylpiperazin-1-yl)phenyl]ethyl}amino)carbonyl]pyridin-2-yl}-8-azabicyclo[3.2.1]oct-3-endo-yl)-2-{[2-(methylsulfonyl)ethyl]amino}benzene-1,4-dicarboxamide] was tested. Which IC50 did it give?
The IC50 was less than 500 nM.

Which IC50 does the source give for `COc1cc(Nc2cc(C(=O)NC3CC4CCC(C3)N4c3ccc(C(=O)N[C@@H](C)c4ccc(N5CCN(C)CC5)cc4)cn3)ccc2C(N)=O)cc(OC)c1OC` (stereo partly drawn) [N4-(8-{5-[({(1S)-1-[4-(4-methylpiperazin-1-yl)phenyl]ethyl}amino)carbonyl]pyridin-2-yl}-8-azabicyclo[3.2.1]oct-3-endo-yl)-2-{[3,4,5-tris(methyloxy)phenyl]amino}benzene-1,4-dicarboxamide] here?
Its IC50 is less than 500 nM.

For `C[C@H](NC(=O)c1ccc(N2[C@@H]3CC[C@H]2C[C@@H](NC(=O)c2ccc(C(N)=O)c(NC4CCN(S(C)(=O)=O)CC4)c2)C3)nc1)c1ccc(N2CCN(C)CC2)cc1` [N4-(8-{5-[({(1S)-1-[4-(4-methylpiperazin-1-yl)phenyl]ethyl}amino)carbonyl]pyridin-n-2-yl}-8-azabicyclo[3.2.1]oct-3-endo-yl)-2-{[1-(methylsulfonyl)piperidin-4-yl]amino}benzene-1,4-dicarboxamide], which IC50 is on record?
Its IC50 is less than 500 nM.

Which IC50 does the source give for `CC(=O)c1ccc(N2[C@@H]3CC[C@H]2C[C@@H](NC(=O)c2ccc(C(N)=O)c(NCC(C)(C)C)c2)C3)nc1` [N4-[8-(5-acetylpyridin-2-y)-8-azabicyclo[3.2.1]oct-3-endo-yl]-2-[(2,2-dimethylpropyl)amino]benzene-1,4-dicarboxamide] here?
The IC50 was less than 500 nM.

For `CCC(C)Nc1cc(C(=O)N[C@H]2C[C@H]3CC[C@@H](C2)N3c2ccc(C(C)=O)cn2)ccc1C(N)=O` (stereo partly drawn) [N4-[8-(5-acetylpyridin-2-yl)-8-azabicyclo[3.2.1]oct-3-endo-yl]-2-((1-methylpropyl)amino]benzene-1,4-dicarboxamide], which IC50 is on record?
Its IC50 is less than 500 nM.

For `CCCCNc1cc(C(=O)N[C@H]2C[C@H]3CC[C@@H](C2)N3c2ccc(C(C)=O)cn2)ccc1C(N)=O` [N4-[8-(5-acetylpyridin-2-yl)-8-azabicyclo[3.2.1]oct-3-endo-yl]-2-(butylamino)benzene-1,4-dicarboxamide], which IC50 is on record?
The IC50 was less than 500 nM.

`CC(=O)c1ccc(N2[C@@H]3CC[C@H]2C[C@@H](NC(=O)c2ccc(C(N)=O)c(NC4CCCC4)c2)C3)nc1` [N4-[8-(5-acetylpyridin-2-yl)-8-azabicyclo[3.2.1]oct-3-endo-yl]-2-(cyclopentylamino)benzene-1,4-dicarboxamide] was tested. Which IC50 did it give?
Its IC50 is less than 500 nM.

Which IC50 does the source give for `CC(=O)c1ccc(N2[C@@H]3CC[C@H]2C[C@@H](NC(=O)c2ccc(C(N)=O)c(NC4CC4)c2)C3)nc1` [N4-[8-(5-acetylpyridin-2-yl)-8-azabicyclo[3.2.1]oct-3-endo-yl]-2-(cyclopropylamino)benzene-1,4-dicarboxamide] here?
The IC50 was less than 500 nM.
